For assay [1], the target named is MCL-1 (Homo sapiens (Human), UniProt Q07820). Briefly: Cell free Mcl-1:Bim affinity assay (fluorescence polarization competition). Type of assay: binding. Conditions: 15 nM MCL-1, 5 nM FITC-Bim, 1 hour at room temperature, read-out: BIM_Ki. In short, it runs like this:
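Compounds competed with FITC-labelled Bim peptide (5 nM) for MCL-1 (15 nM) in HEPES/NaCl buffer with 1% DMSO, 1 h at room temperature. Fluorescence polarization (535 nm emission) gave % inhibition versus DMSO and positive controls; IC50 from 10-point curves, converted to Ki by the Nikolovska-Coleska equation.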
(In fluorescence polarisation assays a small probe gives low polarisation when free and higher when bound to something large.)

Assay [2] concerns H929 cells. Briefly: Cell viability assay (H929 10 FBS). Type of assay: cell-based. The settings on record: Homo sapiens, NCI-H929, 24 hours, read-out: H929_10FBS IC50. In short, it runs like this: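 H929 cells, 4000/well, in RPMI 1640 with 10% FBS, sodium pyruvate, HEPES and glucose were exposed to compound 24 h at 37 °C. Viability read as luminescence after 30-60 min at RT with CellTiter-Glo or ATPlite 1 Step.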

13 molecules from patent US11130769B2 (Prelude Therapeutics Incorporated, priority 2018, dated 2021) can be followed below.

pIC50, pKi: −log10 of the molar value. Like-named read-outs stand apart in the source and are kept apart here.

Chain of MCL-1 (Q07820 whole entry): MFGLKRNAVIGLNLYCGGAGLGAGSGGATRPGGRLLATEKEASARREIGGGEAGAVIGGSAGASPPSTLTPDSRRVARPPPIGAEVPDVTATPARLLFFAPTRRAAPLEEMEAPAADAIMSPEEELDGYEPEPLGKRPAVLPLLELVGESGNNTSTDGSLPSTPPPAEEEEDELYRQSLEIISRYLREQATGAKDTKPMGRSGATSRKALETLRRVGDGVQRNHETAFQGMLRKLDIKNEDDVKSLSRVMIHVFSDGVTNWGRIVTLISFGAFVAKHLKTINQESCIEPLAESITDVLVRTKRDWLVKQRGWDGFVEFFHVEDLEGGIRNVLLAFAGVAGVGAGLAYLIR

One may read the pIC50 as the negative decadic logarithm of the IC50, by convention in mol/L. For `CO[C@H]1/C=C/CC[C@H](C)C(=O)NS(=O)(=O)c2ccc3c(c2)N(C[C@@H]2CC[C@H]21)C[C@@]1(CCCc2cc(Cl)ccc21)CO3` [Example 85, (3R,6R,7S,8E,12S,22S)-6′-Chloro-7-methoxy-12-methyl-15,15-dioxo-spiro[20-oxa-15-thia-1,14-diazatetracyclo[14.7.2.03,6.019,24]pentacosa-8,16(25),17,19(24)-tetraene-22,1′-tetralin]-13-one], the pKi in assay [1] (class symbols) is 7.00 to 9.00. Also, the pIC50 in assay [2] is under 6.00.
The matching figures for `CO[C@@H]1/C=C\CN(C)[C@H](C)C(=O)NS(=O)(=O)c2ccc3c(c2)N(C[C@@H]2CC[C@H]21)C[C@@]1(CCCc2cc(Cl)ccc21)CO3` [Example 124, (3R,6R,7R,8Z,12R,22S)-6′-Chloro-7-methoxy-11,12-dimethyl-15,15-dioxo-spiro[20-oxa-15-thia-1,11,14-triazatetracyclo[14.7.2.03,6.019,24]pentacosa-8,16(25),17,19(24)-tetraene-22,1′-tetralin]-13-one]: 7.00 to 9.00 and over 6.00.
Taken in the same sequence, the figures for `CC1(C)OC/C=C/[C@H](OC(=O)N2CCOCC2)[C@@H]2CC[C@H]2CN2C[C@@]3(CCOc4cc(Cl)ccc43)COc3ccc(cc32)S(=O)(=O)NC1=O` [Example 248, [(3R,6R,7S,8E,22S)-7′-Chloro-12,12-dimethyl-13,15,15-trioxo-spiro[11,20-dioxa-15-thia-1,14-diazatetracyclo[14.7.2.03,6.019,24]pentacosa-8,16,18,24-tetraene-22,4′-chromane]-7-yl]morpholine-4-carboxylate] were over 9.00 and under 6.00.
Turning to `CC(=O)NS(=O)(=O)c1ccc2c(c1)N(CC1CCCCC1)CC1(CCCc3cc(Cl)ccc31)CO2` (centres unmarked) [Example 3, N-[6′-Chloro-5-(cyclohexylmethyl)spiro[2,4-dihydro-1,5-benzoxazepine-3,1′-tetralin]-7-yl]sulfonylacetamide], in assay [1] (numeric values), the pKi was 6.84. Also, in assay [2], the pIC50 was under 6.00.
Consider `CCN1C/C=C/[C@H](OC(=O)N2CCOCC2)[C@@H]2CC[C@H]2CN2C[C@@]3(CCCc4cc(Cl)ccc43)COc3ccc(cc32)S(=O)(=O)NC(=O)C1(C)C` [Example 221, [(3R,6R,7S,8E,22S)-6′-Chloro-11-ethyl-12,12-dimethyl-13,15,15-trioxo-spiro[20-oxa-15-thia-1,11,14-triazatetracyclo[14.7.2.03,6.019,24]pentacosa-8,16,18,24-tetraene-22,1′-tetralin]-7-yl]morpholine-4-carboxylate], for which the pKi in assay [1] (class symbols) was over 9.00. In addition, in assay [2], the negative logarithm of the IC50 (pIC50) is over 6.30.
Regarding `COC1CCN(C(=O)O[C@H]2/C=C/CN(C)C3(CCC3)C(=O)NS(=O)(=O)c3ccc4c(c3)N(C[C@@H]3CC[C@H]32)C[C@@]2(CCCc3cc(Cl)ccc32)CO4)CC1` [Example 245, [(3R,6R,7S,8E,22S)-6′-Chloro-11-methyl-12,12-(1,3-propylene)-13,15,15-trioxo-spiro[20-oxa-15-thia-1,11,14-triazatetracyclo[14.7.2.03,6.019,24]pentacosa-8,16,18,24-tetraene-22,1′-tetralin]-7-yl] 4-methoxypiperidine-1-carboxylate], in assay [1] (class symbols), the pKi is over 9.00. Further, the negative logarithm of the IC50 (pIC50) in assay [2] was over 6.30.
Taken in the same sequence, the figures for `CN(C)C(=O)O[C@H]1/C=C/COC2(CC2)C(=O)NS(=O)(=O)c2ccc3c(c2)N(C[C@@H]2CC[C@H]21)C[C@@]1(CCCc2cc(Cl)ccc21)CO3` [Example 41, [(3R,6R,7S,8E,22S)-6′-Chloro-12,12-ethylene-13,15,15-trioxo-spiro[11,20-dioxa-15-thia-1,14-diazatetracyclo[14.7.2.03,6.019,24]pentacosa-8,16,18,24-tetraene-22,1′-tetralin]-7-yl] N,N-dimethylcarbamate] were over 9.00 and over 6.30.
As for `CN1C/C=C/[C@H](OC(=O)N[C@H]2CCOC2)[C@@H]2CC[C@H]2CN2C[C@@]3(CCCc4cc(Cl)ccc43)COc3ccc(cc32)S(=O)(=O)NC(=O)C12CCC2` [Example 295, [(3R,6R,7S,8E,22S)-6′-Chloro-11-methyl-12,12-(1,3-propylene)-13,15,15-trioxo-spiro[20-oxa-15-thia-1,11,14-triazatetracyclo[14.7.2.03,6.019,24]pentacosa-8,16,18,24-tetraene-22,1′-tetralin]-7-yl] N-[(3S)-tetrahydrofuran-3-yl]carbamate], in assay [1] (class symbols), the pKi is 7.00 to 9.00. The negative-log IC50 (pIC50) in assay [2] is under 6.00.
The matching figures for `CN(C)C(=O)O[C@H]1/C=C\COC(C)(C)C(=O)NS(=O)(=O)c2ccc3c(c2)N(C[C@@H]2CC[C@H]21)C[C@@]1(CCCc2cc(Cl)ccc21)CO3` [Example 35, [(3R,6R,7S,8Z,22S)-6′-Chloro-12,12-dimethyl-13,15,15-trioxo-spiro[11,20-dioxa-15-thia-1,14-diazatetracyclo[14.7.2.03,6.019,24]pentacosa-8,16,18,24-tetraene-22,1′-tetralin]-7-yl] N,N-dimethylcarbamate]: 7.00 to 9.00 and under 6.00.
In the case of `CCOC1CN(C(=O)O[C@H]2/C=C/COC3(CCC3)C(=O)NS(=O)(=O)c3ccc4c(c3)N(C[C@@H]3CC[C@H]32)C[C@@]2(CCCc3cc(Cl)ccc32)CO4)C1` [Example 230, [(3R,6R,7S,8E,22S)-6′-Chloro-12,12-(1,3-propylene)-13,15,15-trioxo-spiro[11,20-dioxa-15-thia-1,14-diazatetracyclo[14.7.2.03,6.019,24]pentacosa-8,16(25),17,19(24)-tetraene-22,1′-tetralin]-7-yl]-N,N-1,3-(2-ethoxy)propylene carbamate], in assay [1] (class symbols), the pKi is over 9.00. Also, the pIC50 in assay [2] is over 6.30.
`C=CCCCC(=O)NS(=O)(=O)c1ccc2c(c1)N(Cc1cnn(CC=C)c1)CC1(CCCc3cc(Cl)ccc31)CO2` (centres unmarked) [Example 10, N-[5-[(1-Allylpyrazol-4-yl)methyl]-6′-chloro-spiro[2,4-dihydro-1,5-benzoxazepine-3,1′-tetralin]-7-yl]sulfonylhex-5-enamide]: in assay [1] (numeric values), the pKi is 5.84. In assay [2], the pIC50 was under 6.00.
Take `COC[C@H]1C(=O)NS(=O)(=O)c2ccc3c(c2)N(C[C@@H]2CC[C@H]2[C@H](OC)/C=C/C[C@@H]1C)C[C@@]1(CCCc2cc(Cl)ccc21)CO3` [Example 87, (3R,6R,7R,8E,11S,12S,22S)-6′-Chloro-7-methoxy-12-(methoxymethyl)-11-methyl-15,15-dioxo-spiro[20-oxa-15-thia-1,14-diazatetracyclo[14.7.2.03,6.019,24]pentacosa-8,16,18,24-tetraene-22,1′-tetralin]-13-one]: the pKi in assay [1] (class symbols) is over 9.00. For the same molecule, in assay [2], the pIC50 is over 6.00.
The matching figures for `C[C@@H]1CN(C(=O)O[C@H]2/C=C/COC(C)(C)C(=O)NS(=O)(=O)c3ccc4c(c3)N(C[C@@H]3CC[C@H]32)C[C@@]2(CCCc3cc(Cl)ccc32)CO4)CCN1` [Example 175, [(3R,6R,7S,8E,22S)-6′-Chloro-12,12-dimethyl-13,15,15-trioxo-spiro[11,20-dioxa-15-thia-1,14-diazatetracyclo[14.7.2.03,6.019,24]pentacosa-8,16,18,24-tetraene-22,1′-tetralin]-7-yl] (3R)-3-methylpiperazine-1-carboxylate]: over 9.00 and over 6.30.
